We go through two compounds from article PMC7407272, “Induction of Lysosome Membrane Permeabilization as a Therapeutic Strategy to Target Pancreatic Cancer Stem Cells” (Cancers, 2020).

Each structure is given as a SMILES string. pEC50: −log10 of the molar value.

Experiment [1] concerns PDAC1 adherent 2D monolayers. As to the kind of experiment: Viability curves on PDAC1 adherent 2D monolayers. The format is cell-based. The following applies: Homo sapiens, 30 h. From the text: The PDAC patient-derived xenograft (PDX) Panc354 (referred to hereafter as PDAC3) was obtained from Dr. Manuel Hidalgo under a Material Transfer Agreement with the Spanish National Cancer Centre (CNIO), Madrid, Spain (Reference no. I409181220BSMH). PDAC1, PDAC2 and PDAC4 PDXs were established from primary patient resected tumors. Samples were provided by the BioBank Hospital Ramón y Cajal-IRYCIS (PT13/0010/0002), integrated in the Spanish National Biobanks Network and they were processed following standard operating procedures with the appropriate approval of the Ethical and Scientific Committees (Control no. No. Control: DE-BIOB-73 AC65, RG.BIOB-96 REV, and CI-BIOB-08-10-01 rev), with informed consent and according to Declaration of Helsinki principles. Primary patient tumors were subcutaneously implanted in immunocompromised female 6- to 8-week-old NU-Foxn1nu nude mice (Envigo, Barcelona, Spain) and subsequently passage in vivo to establish PDX PDAC1, PDAC2 and PDAC4. Primary PDX-derived in vitro cultures were established as previously detailed. […]
Murine embryonic stem cells (mESCs) were plated at 20,000 cells per well in gelatinized 96 well plates. […] Trypsinized cells were counted and 20,000 cells were plated in wells of standard tissue culture-treated plates (Corning) and treated the following day with indicated compounds and concentrations.

The test system of another experiment is re-plated PDAC2 spheres. Description: Acridine orange lysosomal integrity assay. The class given is cell-based, human. Here is the method:
Cells were analyzed with a 4-laser Attune NxT Acoustic Cytometer (ThermoFisher Scientific). […] Autofluorescent cells were excited with blue laser 488nm and selected as the intersection with the filters 530/40 and 580/30 as previously described. For lysosomes quantification, Acridine Orange (AO) (A1301, Thermo Fisher Scientific, Waltham, MA, USA) or Lysotracker Deep Red (DR) (L12492, Molecular probes, Life Technologies, Waltham, MA, USA) were used. […] Bafilomycin A1 (100 nM, Calbiochem, San Diego, CA, USA) was included as a positive control for lysosome disruption. For Annexin V staining, floating and attached cells were pooled and resuspended in 1× AnnexinV staining buffer containing AnnexinV-APC diluted 1:20 (Biotium, Freemont, CA, USA) and incubated for 20 min at room temperature prior to flow cytometric analysis. For all assays, DAPI was used to mark and exclude dead cells, and data were analyzed using the software FlowJo v9.3 (Tree Star Inc., Ashland, OR, USA).
Re-plated spheres were loaded with 1 µg/mL acridine orange (A1301, Thermo Fisher Scientific) for 15 min then washed 3 times with PBS. […]

The target of the next experiment is T1, PFTAIRE2 (Homo sapiens, UniProt Q96Q40).
T1 construct: purchased DiscoveRx KINOMEscan
T1 sequence (Q96Q40 whole entry): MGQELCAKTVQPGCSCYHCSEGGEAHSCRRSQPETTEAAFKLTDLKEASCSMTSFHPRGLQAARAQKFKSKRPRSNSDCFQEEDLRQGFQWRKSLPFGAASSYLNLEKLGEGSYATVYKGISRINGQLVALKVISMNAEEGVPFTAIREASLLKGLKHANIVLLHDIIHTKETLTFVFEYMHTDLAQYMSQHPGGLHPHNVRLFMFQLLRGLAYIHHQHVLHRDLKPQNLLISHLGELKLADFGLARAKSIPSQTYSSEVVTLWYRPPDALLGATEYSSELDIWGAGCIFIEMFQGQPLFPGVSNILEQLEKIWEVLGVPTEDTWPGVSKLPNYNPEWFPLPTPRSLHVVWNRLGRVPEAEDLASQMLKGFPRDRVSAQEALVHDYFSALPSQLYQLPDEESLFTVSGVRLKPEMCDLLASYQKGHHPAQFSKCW
Description: KINOMEscan. The following applies: read-out: % Ctrl. The class given is binding.

A further experiment has as its target T2, PHKG1 (Homo sapiens, UniProt Q16816).
T2 construct: purchased DiscoveRx KINOMEscan
As to the kind of experiment: KINOMEscan. The following applies: read-out: % Ctrl. The format is binding.

A further experiment deals with T3, PIK3CA(I800L) (Homo sapiens, UniProt P42336, I800L).
T3 construct: purchased DiscoveRx KINOMEscan
T3 sequence (P42336 whole entry I800L): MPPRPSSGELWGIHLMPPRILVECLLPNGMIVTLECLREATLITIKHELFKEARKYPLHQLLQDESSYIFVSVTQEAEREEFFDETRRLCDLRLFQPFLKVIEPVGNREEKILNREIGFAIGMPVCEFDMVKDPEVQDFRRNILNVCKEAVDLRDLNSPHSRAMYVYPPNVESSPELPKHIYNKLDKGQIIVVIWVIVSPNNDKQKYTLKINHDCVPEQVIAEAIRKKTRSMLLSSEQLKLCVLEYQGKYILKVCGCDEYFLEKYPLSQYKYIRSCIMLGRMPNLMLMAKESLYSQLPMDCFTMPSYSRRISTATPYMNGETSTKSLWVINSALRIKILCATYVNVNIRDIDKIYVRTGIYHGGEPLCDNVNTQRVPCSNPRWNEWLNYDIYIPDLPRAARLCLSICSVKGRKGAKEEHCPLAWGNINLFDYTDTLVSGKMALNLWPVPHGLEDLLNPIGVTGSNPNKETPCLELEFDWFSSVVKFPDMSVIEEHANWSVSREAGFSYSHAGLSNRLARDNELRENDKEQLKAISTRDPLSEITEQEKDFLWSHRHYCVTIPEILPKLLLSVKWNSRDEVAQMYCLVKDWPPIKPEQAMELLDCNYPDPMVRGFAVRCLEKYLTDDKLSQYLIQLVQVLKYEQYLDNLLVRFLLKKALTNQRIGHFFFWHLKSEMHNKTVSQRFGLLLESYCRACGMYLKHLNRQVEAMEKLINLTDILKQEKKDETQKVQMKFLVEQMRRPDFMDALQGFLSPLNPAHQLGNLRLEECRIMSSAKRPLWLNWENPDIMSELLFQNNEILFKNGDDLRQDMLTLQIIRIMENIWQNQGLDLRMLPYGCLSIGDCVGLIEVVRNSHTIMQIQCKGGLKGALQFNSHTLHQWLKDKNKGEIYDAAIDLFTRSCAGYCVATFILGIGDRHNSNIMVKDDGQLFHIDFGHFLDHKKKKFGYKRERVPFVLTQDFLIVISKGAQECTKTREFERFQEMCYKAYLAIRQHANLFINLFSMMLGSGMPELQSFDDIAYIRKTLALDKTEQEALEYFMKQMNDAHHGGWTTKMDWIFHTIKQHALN
As to the kind of experiment: KINOMEscan. The format is binding. To be noted: read-out: % Ctrl.

A further experiment concerns the target T4, ADCK4 (Homo sapiens, UniProt Q96D53).
T4 construct: purchased DiscoveRx KINOMEscan
Description: KINOMEscan. The class given is binding. The following applies: read-out: % Ctrl.

In the next experiment the target is T5, PRKCD (Homo sapiens, UniProt Q05655).
T5 construct: purchased DiscoveRx KINOMEscan
T5 sequence (Q05655 whole entry): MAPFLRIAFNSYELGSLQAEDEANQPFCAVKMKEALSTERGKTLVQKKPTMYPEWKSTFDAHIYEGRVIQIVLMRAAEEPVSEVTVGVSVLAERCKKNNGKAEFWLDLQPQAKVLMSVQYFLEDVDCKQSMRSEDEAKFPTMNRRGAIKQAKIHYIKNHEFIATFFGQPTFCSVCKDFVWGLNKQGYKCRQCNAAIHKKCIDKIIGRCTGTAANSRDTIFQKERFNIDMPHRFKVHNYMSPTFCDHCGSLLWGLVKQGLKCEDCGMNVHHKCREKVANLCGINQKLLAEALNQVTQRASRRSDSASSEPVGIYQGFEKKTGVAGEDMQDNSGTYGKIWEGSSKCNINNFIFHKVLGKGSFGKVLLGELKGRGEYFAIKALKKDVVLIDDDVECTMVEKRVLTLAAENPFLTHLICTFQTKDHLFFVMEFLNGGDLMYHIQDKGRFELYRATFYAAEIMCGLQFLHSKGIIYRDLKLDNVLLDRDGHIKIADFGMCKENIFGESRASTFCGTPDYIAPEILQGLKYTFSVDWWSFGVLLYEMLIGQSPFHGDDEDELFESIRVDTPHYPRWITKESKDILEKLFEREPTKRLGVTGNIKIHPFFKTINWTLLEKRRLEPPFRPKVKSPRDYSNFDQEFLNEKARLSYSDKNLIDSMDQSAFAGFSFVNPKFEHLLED
Description: KINOMEscan. The class given is binding. The following applies: read-out: % Ctrl.

The target in a further experiment is T6, CDK9 (Homo sapiens, UniProt P50750).
T6 construct: purchased DiscoveRx KINOMEscan
T6 sequence (P50750 whole entry): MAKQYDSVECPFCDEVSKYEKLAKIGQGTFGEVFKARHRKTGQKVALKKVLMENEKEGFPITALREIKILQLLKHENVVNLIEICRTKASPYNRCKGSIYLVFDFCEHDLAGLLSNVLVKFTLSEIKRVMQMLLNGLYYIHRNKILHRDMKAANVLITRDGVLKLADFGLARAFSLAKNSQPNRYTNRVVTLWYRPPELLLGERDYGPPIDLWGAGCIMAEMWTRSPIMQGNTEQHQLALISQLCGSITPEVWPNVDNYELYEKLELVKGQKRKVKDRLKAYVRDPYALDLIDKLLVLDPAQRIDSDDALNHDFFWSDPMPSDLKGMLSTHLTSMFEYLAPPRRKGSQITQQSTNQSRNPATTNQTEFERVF
As to the kind of experiment: KINOMEscan. The format is binding. The following applies: read-out: % Ctrl.

The target of another experiment is T7, LZK (Homo sapiens, UniProt O43283).
T7 construct: purchased DiscoveRx KINOMEscan
Description: KINOMEscan. The format is binding. To be noted: read-out: % Ctrl.

The next experiment has as its target T8, CLK3 (Homo sapiens, UniProt P49761).
T8 construct: purchased DiscoveRx KINOMEscan
Description: KINOMEscan. The format is binding. To be noted: read-out: % Ctrl.

In a further experiment the target is T9, MAP4K5 (Homo sapiens, UniProt Q9Y4K4).
T9 construct: purchased DiscoveRx KINOMEscan
T9 sequence (Q9Y4K4 whole entry): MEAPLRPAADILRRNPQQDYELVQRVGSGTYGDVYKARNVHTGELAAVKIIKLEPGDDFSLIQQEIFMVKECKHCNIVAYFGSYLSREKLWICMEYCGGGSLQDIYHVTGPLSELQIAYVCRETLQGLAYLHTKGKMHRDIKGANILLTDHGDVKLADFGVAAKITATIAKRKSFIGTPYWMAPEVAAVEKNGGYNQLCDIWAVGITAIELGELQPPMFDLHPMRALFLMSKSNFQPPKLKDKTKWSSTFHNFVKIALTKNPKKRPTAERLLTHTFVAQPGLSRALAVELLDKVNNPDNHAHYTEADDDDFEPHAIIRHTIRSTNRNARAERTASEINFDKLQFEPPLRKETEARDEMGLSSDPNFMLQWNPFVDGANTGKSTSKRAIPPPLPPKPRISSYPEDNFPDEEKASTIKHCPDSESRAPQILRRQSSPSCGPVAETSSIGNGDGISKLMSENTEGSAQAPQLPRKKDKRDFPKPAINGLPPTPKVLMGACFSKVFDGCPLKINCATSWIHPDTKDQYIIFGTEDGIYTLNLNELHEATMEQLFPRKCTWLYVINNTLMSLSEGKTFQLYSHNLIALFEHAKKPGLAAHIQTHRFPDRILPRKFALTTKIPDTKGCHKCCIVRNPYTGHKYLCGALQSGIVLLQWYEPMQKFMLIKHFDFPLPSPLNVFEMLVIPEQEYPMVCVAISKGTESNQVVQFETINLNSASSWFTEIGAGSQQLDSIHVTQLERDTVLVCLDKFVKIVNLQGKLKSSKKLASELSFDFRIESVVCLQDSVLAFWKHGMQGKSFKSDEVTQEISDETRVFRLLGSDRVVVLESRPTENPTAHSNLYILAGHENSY
As to the kind of experiment: KINOMEscan. To be noted: read-out: % Ctrl. The class given is binding.

For the next experiment, the target named is T10, CSF1R-autoi. (Homo sapiens, UniProt P07333).
T10 construct: purchased DiscoveRx KINOMEscan
Description: KINOMEscan. To be noted: read-out: % Ctrl. The format is binding.

In the next experiment the target is T11, CTK (Homo sapiens, UniProt P42679).
T11 construct: purchased DiscoveRx KINOMEscan
Description: KINOMEscan. The class given is binding. To be noted: read-out: % Ctrl.

The target in another experiment is T12, MERTK (Homo sapiens, UniProt Q12866).
T12 construct: purchased DiscoveRx KINOMEscan
As to the kind of experiment: KINOMEscan. To be noted: read-out: % Ctrl. The format is binding.

The target of a further experiment is T13, STK35 (Homo sapiens, UniProt Q8TDR2).
T13 construct: purchased DiscoveRx KINOMEscan
As to the kind of experiment: KINOMEscan. The class given is binding. To be noted: read-out: % Ctrl.

A further experiment has as its target T14, TYK2(JH2D.-pseudoK.) (Homo sapiens, UniProt P29597).
T14 construct: TYK2(JH2D.-pseudoK.); purchased DiscoveRx KINOMEscan
As to the kind of experiment: KINOMEscan. To be noted: read-out: % Ctrl. The class given is binding.

The target in the next experiment is T15, ERBB2 (Homo sapiens, UniProt P04626).
T15 construct: purchased DiscoveRx KINOMEscan
T15 sequence (P04626 23-1255): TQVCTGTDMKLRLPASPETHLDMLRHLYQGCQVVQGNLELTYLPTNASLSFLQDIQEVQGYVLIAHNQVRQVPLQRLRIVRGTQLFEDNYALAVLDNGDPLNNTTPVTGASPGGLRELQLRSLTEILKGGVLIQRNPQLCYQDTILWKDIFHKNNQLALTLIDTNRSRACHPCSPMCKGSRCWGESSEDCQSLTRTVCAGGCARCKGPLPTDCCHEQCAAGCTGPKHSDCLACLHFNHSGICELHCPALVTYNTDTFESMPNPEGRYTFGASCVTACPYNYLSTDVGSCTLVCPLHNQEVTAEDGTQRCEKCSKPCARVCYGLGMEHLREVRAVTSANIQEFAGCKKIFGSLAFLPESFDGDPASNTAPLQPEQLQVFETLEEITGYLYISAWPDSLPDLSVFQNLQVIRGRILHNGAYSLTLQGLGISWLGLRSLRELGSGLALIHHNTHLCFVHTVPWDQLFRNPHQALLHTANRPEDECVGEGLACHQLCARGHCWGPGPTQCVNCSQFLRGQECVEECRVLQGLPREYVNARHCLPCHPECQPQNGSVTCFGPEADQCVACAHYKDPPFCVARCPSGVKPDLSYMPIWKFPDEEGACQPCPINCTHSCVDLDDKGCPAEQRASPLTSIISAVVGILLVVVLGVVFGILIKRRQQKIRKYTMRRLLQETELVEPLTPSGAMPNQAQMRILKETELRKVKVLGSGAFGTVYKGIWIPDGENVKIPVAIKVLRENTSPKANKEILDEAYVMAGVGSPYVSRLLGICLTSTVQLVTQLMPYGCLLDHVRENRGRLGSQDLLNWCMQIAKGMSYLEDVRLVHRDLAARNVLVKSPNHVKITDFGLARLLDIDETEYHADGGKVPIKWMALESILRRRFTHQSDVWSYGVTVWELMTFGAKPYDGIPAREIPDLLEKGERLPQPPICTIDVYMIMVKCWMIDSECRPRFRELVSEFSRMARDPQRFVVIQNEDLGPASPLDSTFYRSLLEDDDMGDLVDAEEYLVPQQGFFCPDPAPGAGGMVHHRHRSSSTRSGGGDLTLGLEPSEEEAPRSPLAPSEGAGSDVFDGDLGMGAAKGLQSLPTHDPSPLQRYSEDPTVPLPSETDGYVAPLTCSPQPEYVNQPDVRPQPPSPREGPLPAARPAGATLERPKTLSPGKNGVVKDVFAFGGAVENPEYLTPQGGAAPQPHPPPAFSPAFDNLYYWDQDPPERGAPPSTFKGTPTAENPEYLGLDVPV
As to the kind of experiment: KINOMEscan. The class given is binding. To be noted: read-out: % Ctrl.

For another experiment, the target named is T16, PCTK1 (Homo sapiens, UniProt Q00536).
T16 construct: purchased DiscoveRx KINOMEscan
Description: KINOMEscan. The format is binding. The following applies: read-out: % Ctrl.

T2 sequence (Q16816 whole entry): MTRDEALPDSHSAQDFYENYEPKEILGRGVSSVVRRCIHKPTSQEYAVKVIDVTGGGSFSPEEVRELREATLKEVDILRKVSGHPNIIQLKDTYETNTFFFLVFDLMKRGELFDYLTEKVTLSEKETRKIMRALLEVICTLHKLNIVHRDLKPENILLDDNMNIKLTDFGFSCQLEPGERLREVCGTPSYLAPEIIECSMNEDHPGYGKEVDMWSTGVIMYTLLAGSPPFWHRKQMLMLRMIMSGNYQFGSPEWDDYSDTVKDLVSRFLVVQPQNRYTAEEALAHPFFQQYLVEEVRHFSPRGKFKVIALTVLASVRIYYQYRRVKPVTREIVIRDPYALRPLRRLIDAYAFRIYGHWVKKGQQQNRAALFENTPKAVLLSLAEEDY

As a reminder, the pEC50 is −log10 of the EC50, conventionally taken in molar units. High values mean a low EC50, low ones a high EC50. Compound `COc1nc2ccc(NCC3CCN(C)CC3)nn2c1C(=O)Nc1cccc(OC(F)(F)F)c1` [Cpd 1] gave a pEC50 in experiment [1] of roughly 5.45.
Turning to `CN1CCC(CNc2ccc3ncc(C(=O)Nc4cccc(OC(F)(F)F)c4)n3n2)CC1` [Cpd 2], the “Acridine Orange staining (LMP), fluorescence microscopy” value with re-plated PDAC2 spheres (5 µM, 2 h) is given as “greatly reduced lysosomal staining in the far-red channel”. Moreover, the “AO mean far-red fluorescence intensity (MFI), flow cytometry” value with re-plated PDAC2 spheres (1.25, 2.5 or 5 µM, 6 h and 24 h) is recorded as “decreasing overall AO mean far-red fluorescence intensity”. Also, the remaining binding at 1 µM was 92% at PFTAIRE2; 100% on PHKG1; 81% on PIK3CA(I800L); 99% on ADCK4; 80% on PRKCD; 98% on CDK9. In addition, the remaining binding at 1 µM on LZK worked out at 92%; on CLK3, 93%; at MAP4K5, 92%; on CSF1R-autoi. it was 88%; at CTK, 70%; on MERTK it was 88%. Further, the remaining binding at 1 µM on STK35 is 92%; at TYK2(JH2D.-pseudoK.) it was 12%; on ERBB2, 88%; at PCTK1, 100%.
